We go through seven compounds from US20250320206A1, “STAT6 DEGRADERS” (Gilead Sciences, Inc., priority 2024, published 2025).

For the assay, the target named is T1, STAT6 (Homo sapiens, UniProt P42226).
T1 construct: These cells express endogenous STAT6; host or cells: HeLa LgBiT clone 4.14
T1 sequence (P42226 1-847): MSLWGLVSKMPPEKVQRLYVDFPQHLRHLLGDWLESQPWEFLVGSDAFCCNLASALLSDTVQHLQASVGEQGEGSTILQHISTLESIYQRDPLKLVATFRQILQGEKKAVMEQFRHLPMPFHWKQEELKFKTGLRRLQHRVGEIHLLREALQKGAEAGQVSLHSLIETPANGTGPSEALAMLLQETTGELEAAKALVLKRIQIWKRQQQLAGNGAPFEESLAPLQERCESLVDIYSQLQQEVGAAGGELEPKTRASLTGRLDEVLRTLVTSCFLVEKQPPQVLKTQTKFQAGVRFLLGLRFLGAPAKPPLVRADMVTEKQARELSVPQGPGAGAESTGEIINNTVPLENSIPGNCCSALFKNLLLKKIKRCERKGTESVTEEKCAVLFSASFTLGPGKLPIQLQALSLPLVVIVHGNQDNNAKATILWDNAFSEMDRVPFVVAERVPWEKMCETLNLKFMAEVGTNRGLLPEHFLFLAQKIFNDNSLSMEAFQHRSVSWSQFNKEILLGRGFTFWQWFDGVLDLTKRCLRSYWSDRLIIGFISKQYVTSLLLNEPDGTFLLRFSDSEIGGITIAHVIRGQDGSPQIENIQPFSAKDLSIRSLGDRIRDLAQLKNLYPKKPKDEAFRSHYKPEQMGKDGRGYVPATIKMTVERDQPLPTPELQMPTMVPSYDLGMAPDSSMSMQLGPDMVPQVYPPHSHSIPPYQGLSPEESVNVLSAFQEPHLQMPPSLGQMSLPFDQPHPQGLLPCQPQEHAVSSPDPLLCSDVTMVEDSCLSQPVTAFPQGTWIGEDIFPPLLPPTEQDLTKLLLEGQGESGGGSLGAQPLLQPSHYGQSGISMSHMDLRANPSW
Put plainly: Stat6 Degrader Assay (HiBiT based, HeLa LgBiT clone 4.14). The class given is cell-based. Particulars: HeLa LgBiT clone 4.14 HiBiT-STAT6, 4-24 h incubation; values given for compounds with >80% Emax; geometric mean; read-out: STAT6 degradation DC50. Here is the method:
This was a HiBit based assay. A HeLa cell line stably transfected with a small protein, LgBit (Large Bit) was obtained from Promega. These cells express endogenous STAT6. A small 11 amino acid gene sequence (HiBiT) was inserted in the STAT6 gene using CRISPR technology. Once STAT6 protein is expressed in the cells, the HiBiT sequence will bind the LgBit in the cells resulting in a functional NanoBiT protein, giving a luminescent tag to STAT6, see FIG. 2.
Single cell clones were prepared and the clone 4.14 was selected for the assay based on that clone showing high luminescence, high STAT6 phosphorylation upon stimulation with IL-4, and inhibition of luminescence when cells were treated with STAT6 siRNA.
HeLa LgBiT clone 4.14 cells were suspended in DMEM with 10% FCS, 1% Pen/Strep, Na-pyrovate and Hygromycin B, at a concentration of 1.25*105 cells pr mL. 5000 cells were added pr well of a 384 well plate and 20 nL of compound was added by Echo® liquid handler. NN6394A (terfenadine, a toxic compound) was added to control wells at 50 μM concentration to establish the assay window. In these wells the cells are dead which equals 100% degradation of STAT6.
After 4-24 h of incubation at 37° C. under 5% CO2/95% air, 5 μL substrate (Nano-GLO®) was added to the wells and the plates were centrifuged and incubated for 0.5 h.
The luminescence in the wells as a measure of non-degraded STAT6 was measured in a plate reader (BMG Pherastar FSX).
The dose-response curves for Examples 3u208, 3u246, 3u118, 3u119, 3u120, and 3u74 are shown in FIG. 1 (where percent degradation is plotted vs. test compound concentration in M on a log-scale).
For `Cc1cc(C(=O)N2CCC(CN3CCN(Cc4ccc5c(c4)n(C4CC4)c(=O)n5C4CCC(=O)NC4=O)C[C@@H]3C)CC2)cc(F)c1C1=CCN([C@@H](C)c2cc3c(-n4ccc5c(c4=O)CCN5)ccnc3n2C)CC1` (stereo partly drawn) [Example 3u143, 3-(3-cyclopropyl-5-(((S)-4-((1-(3-fluoro-5-methyl-4-(1-((S)-1-(1-methyl-4-(4-oxo-1,2,3,4-tetrahydro-5H-pyrrolo[3,2-c]pyridin-5-yl)-1H-pyrrolo[2,3-b]pyridin-2-yl)ethyl)-1,2,3,6-tetrahydropyridin-4-yl)benzoyl)piperidin-4-yl)methyl)-3-methylpiperazin-1-yl)methyl)-2-oxo-2,3-dihydro-1H-benzo[d]imidazol-1-yl)piperidine-2,6-dione], the 50% degradation concentration (DC50) worked out at 0.7 nM.

`Cc1cc(C(=O)N2CCC(CN3CCN(Cc4cc5c(cc4F)n([C@@H]4CCC(=O)NC4=O)c(=O)n5C4CC4)CC3)CC2)cc(F)c1C1=CCN([C@@H](C)c2cc3c(-n4ccc5c(c4=O)CCN5)ccnc3n2C)CC1` (single isomer, unassigned) [Example 3u148]: the 50% degradation concentration (DC50) was 2.7 nM.

Turning to `CNc1ccn(-c2ccnc3c2cc([C@H](C)N2CC=C(c4c(C)cc(C(=O)N5CCC(CN6CCN(Cc7cc8c(cc7F)n(C7CCC(=O)NC7=O)c(=O)n8C)CC6)CC5)cc4F)CC2)n3C)c(=O)c1` (stereo partly drawn) [Example 3u10, 3-(6-fluoro-5-((4-((1-(3-fluoro-5-methyl-4-(1-((S)-1-(1-methyl-4-(4-(methylamino)-2-oxopyridin-1 (2H)-yl)-1H-pyrrolo[2,3-b]pyridin-2-yl)ethyl)-1,2,3,6-tetrahydropyridin-4-yl)benzoyl)-piperidin-4-yl)methyl)piperazin-1-yl)methyl)-3-methyl-2-oxo-2,3-dihydro-1H-benzo[d]imidazol-1-yl)piperidine-2,6-dione], the DC50 was 0.6 nM.

Regarding `CNc1cc(=O)n(-c2ccnc3c2cc([C@H](C)N2CC=C(c4c(C)cc(C(=O)N5CCC(CN6CCN(c7ccc8c(c7)n(C7CC7)c(=O)n8C7CCC(=O)NC7=O)CC6)CC5)cc4F)CC2)n3C)cc1F` (stereo partly drawn) [Example 3u276, 3-(3-cyclopropyl-5-(4-((1-(3-fluoro-4-(1-((S)-1-(4-(5-fluoro-4-(methylamino)-2-oxopyridin-1 (2H)-yl)-1-methyl-1H-pyrrolo[2,3-b]pyridin-2-yl)ethyl)-1,2,3,6-tetrahydropyridin-4-yl)-5-methyl-benzoyl)piperidin-4-yl)methyl)piperazin-1-yl)-2-oxo-2,3-dihydro-1H-benzo[d]imidazol-1-yl)piperidine-2,6-dione], the 50% degradation concentration (DC50) is 4.3 nM.

Consider `Cc1cc(C(=O)N2CCC(CN3CCN(Cc4ccc5c(c4)n(C)c(=O)n5C4CCC(=O)NC4=O)C[C@@H]3C)CC2)cc(F)c1C1=CCN(Cc2cc3c(-n4ccc5c(c4=O)CCN5)ccnc3n2C)CC1` (stereo partly drawn) [Example 3u23, 3-(5-(((S)-4-((1-(3-fluoro-5-methyl-4-(1-((1-methyl-4-(4-oxo-1,2,3,4-tetrahydro-5H-pyrrolo[3,2-c]pyridin-5-yl)-1H-pyrrolo[2,3-b]pyridin-2-yl)methyl)-1,2,3,6-tetrahydropyridin-4-yl)benzoyl)piperidin-4-yl)methyl)-3-methylpiperazin-1-yl)methyl)-3-methyl-2-oxo-2,3-dihydro-1H-benzo[d]imidazol-1-yl)piperidine-2,6-dione], for which the half-maximal degradation concentration (DC50) is 1.3 nM.

On to `CNc1ccn(-c2ccnc3c2cc([C@H](C)N2CC=C(c4c(C)cc(C(=O)N5CCC(CN6CCN(Cc7ccc8c(c7)n(C)c(=O)n8[C@H]7CCC(=O)NC7=O)CC6)CC5)cc4F)CC2)n3C)c(=O)c1` (single isomer, unassigned) [Example 3u156], for which the DC50 worked out at 0.6 nM.

For the compound `CNc1ccn(-c2ccnc3c2cc([C@H](C)N2CC=C(c4c(C)cc(C(=O)N5CCC(CN6CCN(Cc7cc8c(cc7F)n([C@@H]7CCC(=O)NC7=O)c(=O)n8C7CC7)C[C@@H]6C)CC5)cc4F)CC2)n3C)c(=O)c1` (single isomer, unassigned) [Example 3u168], the DC50 amounted to 2.1 nM.
